Key:
Assay in all cases: General post-emergent herbicidal activity, foliar application
Format in all cases: in vivo
[1] = test system: Amaranthus retroflexus L. (pigweed, redroot); conditions: for pest or weed control at 35 g/ha: 35 g ai/ha; for pest or weed control at 70 g/ha: 70 g ai/ha; for pest or weed control at 140 g/ha: 140 g ai/ha; for GR80 Value AMARE: calculated by probit analysis, dose for 80% visual injury, may be extrapolated
Protocol: (§1) A weighed amount, determined by the highest rate to be tested, of each test compound was placed in a 25 mL glass vial and was dissolved in 4 mL of a 97:3 v/v (volume/volume) mixture of acetone and dimethyl sulfoxide to obtain concentrated stock solutions which will be referred to as General Purpose Solvent. […] The concentrated stock solutions obtained were diluted with 20 mL of an aqueous mixture containing water, General Purpose Solvent, isopropyl alcohol, Atplus 411F crop oil concentrate, and Triton X-155 surfactant in a 46:42:12:1.0:0.02 v/v ratio to obtain spray solutions containing the highest application rates. Additional application rates were obtained by serial dilution of 12 mL of the high rate solution into a solution containing 2 mL of 97:3 v/v (volume/volume) mixture of acetone and dimethyl sulfoxide and 10 mL of an aqueous mixture containing water, General Purpose Solvent, isopropyl alcohol, Atplus 411F crop oil concentrate, and Triton X-155 surfactant in a 46:42:12:1.0:0.02 v/v ratio to obtain 1/2×, 1/4×, 1/8× and 1/16× rates of the high rate. […] Control plants were sprayed in the same manner with the solvent blank.
(§2) The treated plants and control plants were placed in a greenhouse as described above and watered by sub-irrigation to prevent wash-off of the test compounds. After 14 days, the condition of the test plants as compared with that of the untreated plants was determined visually and scored on a scale of 0 to 100 percent where 0 corresponds to no injury and 100 corresponds to complete kill.
(§3) By applying the well-accepted probit analysis as described by J. Berkson in […], 48, 565 (1953) and by D. Finney in “Probit Analysis” Cambridge University Press (1952), the dose response data gathered as expressed above can be used to calculate GR20, GR50 and GR80 values, which are defined as growth reduction factors that correspond to the effective dose of herbicide required to kill or control 20 percent, 50 percent or 80 percent, respectively, of a target plant. Data not expressed in Table A may have been used to calculate some of the GR80 values in Table B. In some cases, the GR80 values may be extrapolations calculated based on the slope of the dose response curve for individual compounds listed in Table B.

[2] = test system: Helianthus annuus L. (sunflower, common); conditions: for pest or weed control at 35 g/ha: 35 g ai/ha; for pest or weed control at 70 g/ha: 70 g ai/ha; for pest or weed control at 140 g/ha: 140 g ai/ha; for GR80 Value HELAN: calculated by probit analysis, dose for 80% visual injury, may be extrapolated
Protocol: as §1, §2, §3

[3] = test system: Chenopodium album L. (lambsquarters, common); conditions: for pest or weed control at 35 g/ha: 35 g ai/ha; for pest or weed control at 70 g/ha: 70 g ai/ha; for pest or weed control at 140 g/ha: 140 g ai/ha; for GR80 Value CHEAL: calculated by probit analysis, dose for 80% visual injury, may be extrapolated
Protocol: as §1, §2, §3

[4] = test system: Echinochloa crus-galli (L.) Beauv. (barnyardgrass); conditions: for pest or weed control at 35 g/ha: 35 g ai/ha; for pest or weed control at 70 g/ha: 70 g ai/ha; for pest or weed control at 140 g/ha: 140 g ai/ha; for GR80 Value ECHCG: calculated by probit analysis, dose for 80% visual injury, may be extrapolated
Protocol: as §1, §2, §3

[5] = test system: Viola tricolor L. (pansy); conditions: for pest or weed control at 35 g/ha: 35 g ai/ha; for pest or weed control at 70 g/ha: 70 g ai/ha; for pest or weed control at 140 g/ha: 140 g ai/ha; for GR80 Value VIOTR: calculated by probit analysis, dose for 80% visual injury, may be extrapolated
Protocol: as §1, §2, §3

[6] = test system: Euphorbia heterophylla L. (poinsettia, wild); conditions: for pest or weed control at 35 g/ha: 35 g ai/ha; for pest or weed control at 70 g/ha: 70 g ai/ha; for pest or weed control at 140 g/ha: 140 g ai/ha; for GR80 Value EPHHL: calculated by probit analysis, dose for 80% visual injury, may be extrapolated
Protocol: as §1, §2, §3

[7] = test system: Zea mays L. (corn); conditions: 336 h, scored after 14 days, read-out: % Visual Growth Reduction ZEAMX; for plant injury at 35 g/ha: 35 g ai/ha; for plant injury at 70 g/ha: 70 g ai/ha; for plant injury at 140 g/ha: 140 g ai/ha
Protocol: as §1, §2

[8] = test system: Oryza sativa L. (rice); conditions: Oryza sativa, 336 h, scored after 14 days, read-out: % Visual Growth Reduction ORYSA; for plant injury at 35 g/ha: 35 g ai/ha; for plant injury at 70 g/ha: 70 g ai/ha; for plant injury at 140 g/ha: 140 g ai/ha
Protocol: as §1, §2

[9] = Amaranthus retroflexus, 336 h, foliar post-emergent, scored after 14 days, read-out: % Visual Growth Reduction AMARE
[10] = Helianthus annuus, 336 h, foliar post-emergent, scored after 14 days, read-out: % Visual Growth Reduction HELAN
[11] = Chenopodium album, 336 h, foliar post-emergent, scored after 14 days, read-out: % Visual Growth Reduction CHEAL
[12] = Echinochloa crus-galli, 336 h, foliar post-emergent, scored after 14 days, read-out: % Visual Growth Reduction ECHCG
[13] = Viola tricolor, 336 h, foliar post-emergent, scored after 14 days, read-out: % Visual Growth Reduction VIOTR
[14] = Euphorbia heterophylla, 336 h, foliar post-emergent, scored after 14 days, read-out: % Visual Growth Reduction EPHHL

| Compound | pest or weed control at 35 g/ha [1, 9] [%] | pest or weed control at 140 g/ha [1, 9] [%] | GR80 Value AMARE [1] [g ai/ha] | pest or weed control at 35 g/ha [2, 10] [%] | pest or weed control at 70 g/ha [2, 10] [%] | pest or weed control at 140 g/ha [2, 10] [%] | GR80 Value HELAN [2] [g ai/ha] | pest or weed control at 35 g/ha [3, 11] [%] | pest or weed control at 70 g/ha [3, 11] [%] | pest or weed control at 140 g/ha [3, 11] [%] | GR80 Value CHEAL [3] [g ai/ha] | pest or weed control at 35 g/ha [4, 12] [%] | pest or weed control at 70 g/ha [4, 12] [%] | pest or weed control at 140 g/ha [4, 12] [%] | GR80 Value ECHCG [4] [g ai/ha] | pest or weed control at 35 g/ha [5, 13] [%] | pest or weed control at 140 g/ha [5, 13] [%] | pest or weed control at 140 g/ha [6, 14] [%] | plant injury at 140 g/ha [7] [%] | plant injury at 140 g/ha [8] [%] | other results |
| --- | --- | --- | --- | --- | --- | --- | --- | --- | --- | --- | --- | --- | --- | --- | --- | --- | --- | --- | --- | --- | --- |
| COC(=O)c1nc(C(C)F)c(Cl)c(N)c1Cl (stereo not drawn) [Compound F10, Methyl 4-amino-3,5-dichloro-6-(1-fluoroethyl)picolinate] | 85 | 100 | 18.1 | 80 | 85 | 100 | 124 | 80 | 85 | 85 | 23.7 | 0 | 0 | 0 | >140 | 0 | 0 | 30 | 0 | 0 | pest or weed control at 70 g/ha [1, 9]: 98%; pest or weed control at 70 g/ha [5, 13]: 0%; GR80 Value VIOTR [5]: >140 g ai/ha; pest or weed control at 35 g/ha [6, 14]: 0%; pest or weed control at 70 g/ha [6, 14]: 20%; GR80 Value EPHHL [6]: >140 g ai/ha; plant injury at 35 g/ha [7]: 0%; plant injury at 70 g/ha [7]: 0%; plant injury at 35 g/ha [8]: 0%; plant injury at 70 g/ha [8]: 0% |
| COC(=O)c1nc(C(C)(F)CF)cc(N)c1Cl (stereo not drawn) [Compound F11, Methyl 4-amino-3-chloro-6-(1,2-difluoropropan-2-yl)picolinate] | – | 30 | – | – | – | 70 | – | – | – | 0 | – | – | – | 0 | – | – | 0 | 10 | 0 | 0 | – |
| COC(=O)c1nc(C(F)F)cc(N)c1Cl [Compound F12, methyl 4-amino-3-chloro-6-(difluoromethyl)picolinate] | 80 | 100 | 26.8 | 100 | 100 | 100 | 23.1 | 90 | 100 | 100 | <17.5 | 0 | 0 | 55 | 249 | 90 | 100 | 100 | 60 | 0 | pest or weed control at 70 g/ha [1, 9]: 100%; pest or weed control at 280 g/ha ([1]; Amaranthus retroflexus, 336 h, 280 g ai/ha, foliar post-emergent, scored after 14 days, read-out: % Visual Growth Reduction AMARE): 100%; pest or weed control at 280 g/ha ([2]; Helianthus annuus, 336 h, 280 g ai/ha, foliar post-emergent, scored after 14 days, read-out: % Visual Growth Reduction HELAN): 100%; pest or weed control at 280 g/ha ([3]; Chenopodium album, 336 h, 280 g ai/ha, foliar post-emergent, scored after 14 days, read-out: % Visual Growth Reduction CHEAL): 100%; pest or weed control at 280 g/ha ([4]; Echinochloa crus-galli, 336 h, 280 g ai/ha, foliar post-emergent, scored after 14 days, read-out: % Visual Growth Reduction ECHCG): 80%; pest or weed control at 70 g/ha [5, 13]: 100%; pest or weed control at 280 g/ha ([5]; Viola tricolor, 336 h, 280 g ai/ha, foliar post-emergent, scored after 14 days, read-out: % Visual Growth Reduction VIOTR): 100%; GR80 Value VIOTR [5]: 29.2 g ai/ha; pest or weed control at 35 g/ha [6, 14]: 90%; pest or weed control at 70 g/ha [6, 14]: 100%; pest or weed control at 280 g/ha ([6]; Euphorbia heterophylla, 336 h, 280 g ai/ha, foliar post-emergent, scored after 14 days, read-out: % Visual Growth Reduction EPHHL): 100%; GR80 Value EPHHL [6]: 29.2 g ai/ha; plant injury at 35 g/ha [7]: 15%; plant injury at 70 g/ha [7]: 30%; plant injury at 280 g/ha ([7]; 280 g ai/ha): 70%; plant injury at 35 g/ha [8]: 0%; plant injury at 70 g/ha [8]: 0%; plant injury at 280 g/ha ([8]; 280 g ai/ha): 8% |
| Nc1c(Cl)c(C(=O)O)nc(C(F)F)c1Cl [Compound F13, 4-Amino-3,5-dichloro-6-(difluoromethyl)picolinic acid] | 90 | 90 | 27.6 | 60 | 75 | 85 | 85.8 | 90 | 90 | 90 | 25.1 | 0 | 0 | 10 | >149 | 0 | 0 | 100 | 5 | 0 | pest or weed control at 70 g/ha [5, 13]: 0%; GR80 Value VIOTR [5]: >140 g ai/ha; pest or weed control at 35 g/ha [6, 14]: 100%; pest or weed control at 70 g/ha [6, 14]: 100%; GR80 Value EPHHL [6]: 21.7 g ai/ha; plant injury at 35 g/ha [7]: 0%; plant injury at 70 g/ha [7]: 0%; plant injury at 35 g/ha [8]: 0%; plant injury at 70 g/ha [8]: 0% |
